Laboratory results published in patent publication US20250114374A1, “BCL-2 INHIBITORS” (Newave Pharmaceutical Inc., priority 2021, published 2025).

What follows are compounds tested on RS4; 11 with G101V mutation (assay: In vitro anti-proliferation assay (ATPlite luminescence) in BCL-2-dependent ALL cell line RS4;11 with G101V mutation). Conditions: Homo sapiens, RS4-11, 72 h; read-out: RS411-G101V IC50.
Type: cell-based
Method in brief: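 IC50 came from luminescent ATP quantification (ATPlite) following cell lysis. Compound dose ranges were applied for roughly 72 h to about 1×10^4 G101V-mutant RS4;11 cells per well, in 10% FBS medium.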
In the case of `CC(C)Oc1ccccc1[C@@H]1CN([C@H]2COc3c(F)cc(F)cc3C2)CCN1C1CC2(CCN(c3ccc(C(=O)NS(=O)(=O)c4cc5c(c([N+](=O)[O-])c4)N[C@H](C4CCOCC4)CO5)c(N4c5cc6cc[nH]c6nc5O[C@H]5COCC[C@@H]54)c3)CC2)C1` [Example 221, 4-(2-((R)-4-((R)-6,8-difluorochroman-3-yl)-2-(2-isopropoxyphenyl)piperazin-1-yl)-7-azaspiro[3.5]nonan-7-yl)-N-(((R)-5-nitro-3-(tetrahydro-2H-pyran-4-yl)-3,4-dihydro-2H-benzo[b][1,4]oxazin-7-yl)sulfonyl)-2-((5aS,9aR)-6,7,9,9a-tetrahydro-1H-pyrano[3,4-b]pyrrolo[3′,2′:5,6]pyrido[3,2-e][1,4]oxazin-5(5aH)-yl)benzamide], the IC50 is reported as 130 nM. With `CC(C)Oc1ccccc1[C@@H]1CN([C@@H]2CCOc3c(F)cc(F)cc32)CCN1C1CC2(CCN(c3ccc(C(=O)NS(=O)(=O)c4cc5c(c([N+](=O)[O-])c4)N[C@H](C4CCOCC4)CO5)c(N4c5cc6cc[nH]c6nc5O[C@H]5COCC[C@@H]54)c3)CC2)C1` [Example 215, 4-(2-((R)-4-((R)-6,8-difluorochroman-4-yl)-2-(2-isopropoxyphenyl)piperazin-1-yl)-7-azaspiro[3.5]nonan-7-yl)-N-(((R)-5-nitro-3-(tetrahydro-2H-pyran-4-yl)-3,4-dihydro-2H-benzo[b][1,4]oxazin-7-yl)sulfonyl)-2-((5aS,9aR)-6,7,9,9a-tetrahydro-1H-pyrano[3,4-b]pyrrolo[3′,2′:5,6]pyrido[3,2-e][1,4]oxazin-5(5aH)-yl)benzamide] the IC50 was 48 nM.

Same assay, conditions: cellular anti-proliferative IC50, about 72 hours, medium with 10% FBS, ATPlite; read-out: RS411-G101V IC50
With `COc1cc(CN2CCN(C3CC4(CCN(c5ccc(C(=O)NS(=O)(=O)c6ccc(NCC7CCC(C)(O)CC7)c([N+](=O)[O-])c6)c(N6c7cc8cc[nH]c8nc7O[C@H]7COCC[C@@H]76)c5)CC4)C3)[C@H](c3ccccc3C)C2)cnc1N1CCOC[C@H]1C` (stereo partly drawn) [Example 139, 2-[(3R,8S)-2,5-dioxa-9,15,17-triazatetracyclo[8.7.0.0^{3,8}.0^{12,16}]heptadeca-1(10),11,13,16-tetraen-9-yl]-4-{2-[(2R)-4-({5-methoxy-6-[(3R)-3-methylmorpholin-4-yl]pyridin-3-yl}methyl)-2-(2-methylphenyl)piperazin-1-yl]-7-azaspiro[3.5]nonan-7-yl}-N-[3-nitro-4-({[(1r,4r)-4-hydroxy-4-methylcyclohexyl]methyl}amino)benzenesulfonyl]benzamide] the IC50 was 3.5 nM. `Cc1ccccc1[C@@H]1CN(Cc2cnc(N3CCOC[C@@H]3C)c(F)c2)CCN1C1CC2(CCN(c3ccc(C(=O)NS(=O)(=O)c4cc5c(c([N+](=O)[O-])c4)N[C@H](C4CCOCC4)CO5)c(N4c5cc6cc[nH]c6nc5O[C@H]5COCC[C@@H]54)c3)CC2)C1` [Example 189, 2-[(3R,8S)-2,5-dioxa-9,15,17-triazatetracyclo[8.7.0.0^{3,8}.0^{12,16}]heptadeca-1(10),11,13,16-tetraen-9-yl]-4-{2-[(2R)-4-({5-fluoro-6-[(3S)-3-methylmorpholin-4-yl]pyridin-3-yl}methyl)-2-(2-methylphenyl)piperazin-1-yl]-7-azaspiro[3.5]nonan-7-yl}-N-[(3R)-5-nitro-3-(oxan-4-yl)-3,4-dihydro-2H-1,4-benzoxazin-7-ylsulfonyl]benzamide] gave an IC50 of 36.8 nM. For `CC(C)Oc1ccccc1[C@@H]1CN([C@@H]2COCc3c2ccc(F)c3F)CCN1C1CC2(CCN(c3ccc(C(=O)NS(=O)(=O)c4cc5c(c([N+](=O)[O-])c4)N[C@H](C4CCOCC4)CO5)c(N4c5cc6cc[nH]c6nc5O[C@H]5COCC[C@@H]54)c3)CC2)C1` [Example 248, 4-{2-[(2R)-4-[(4S)-7,8-difluoro-3,4-dihydro-1H-2-benzopyran-4-yl]-2-(2-isopropoxyphenyl)piperazin-1-yl]-7-azaspiro[3.5]nonan-7-yl}-2-[(3R,8S)-2,5-dioxa-9,15,17-triazatetracyclo[8.7.0.0^{3,8}.0^{12,16}]heptadeca-1(10),11,13,16-tetraen-9-yl]-N-[(3R)-5-nitro-3-(oxan-4-yl)-3,4-dihydro-2H-1,4-benzoxazin-7-ylsulfonyl]benzamide], the IC50 was 9.68 nM. `CC(C)Oc1ccccc1[C@H]1CN(Cc2ccc3c(c2)OCCO3)CCN1C1CC2(CCN(c3ccc(C(=O)NS(=O)(=O)c4ccc(NCC5CCC(C)(O)CC5)c([N+](=O)[O-])c4)c(N4c5cc6cc[nH]c6nc5O[C@H]5COCC[C@@H]54)c3)CC2)C1` (stereo partly drawn) [Example 152, 4-(2-((S)-4-((2,3-dihydrobenzo[b][1,4]dioxin-6-yl)methyl)-2-(2-isopropoxyphenyl)piperazin-1-yl)-7-azaspiro[3.5]nonan-7-yl)-N-((4-((((1r,4r)-4-hydroxy-4-methylcyclohexyl)methyl)amino)-3-nitrophenyl)sulfonyl)-2-((5aS,9aR)-6,7,9,9a-tetrahydro-1H-pyrano[3,4-b]pyrrolo[3′,2′:5,6]pyrido[3,2-e][1,4]oxazin-5(5aH)-yl)benzamide] was tested, and the IC50 was 28.3 nM. `CC(C)Oc1ccccc1[C@@H]1CN(Cc2ccc(F)c(F)c2)CCN1C1CC2(CCN(c3ccc(C(=O)NS(=O)(=O)c4cc5c(c([N+](=O)[O-])c4)N[C@H](C4CCOCC4)CO5)c(N4c5cc6c(F)c[nH]c6nc5O[C@H]5COCC[C@@H]54)c3)CC2)C1` [Example 236, 4-{2-[(2R)-4-[(3,4-difluorophenyl)methyl]-2-(2-isopropoxyphenyl)piperazin-1-yl]-7-azaspiro[3.5]nonan-7-yl}-2-[(3R,8S)-13-fluoro-2,5-dioxa-9,15,17-triazatetracyclo[8.7.0.0^{3,8}.0^{12,16}]heptadeca-1(10),11,13,16-tetraen-9-yl]-N-[(3R)-5-nitro-3-(oxan-4-yl)-3,4-dihydro-2H-1,4-benzoxazin-7-ylsulfonyl]benzamide] gave an IC50 of 5.52 nM. In the case of `Cc1ccccc1[C@@H]1CN(Cc2ccnc3c2OCC(C)(C)O3)CCN1C1CC2(CCN(c3ccc(C(=O)NS(=O)(=O)c4ccc(NCC5CCC(C)(O)CC5)c([N+](=O)[O-])c4)c(N4c5cc6cc[nH]c6nc5O[C@H]5COCC[C@@H]54)c3)CC2)C1` (stereo partly drawn) [Example 148, 4-(2-((R)-4-((3,3-dimethyl-2,3-dihydro-[1,4]dioxino[2,3-b]pyridin-8-yl)methyl)-2-(o-tolyl)piperazin-1-yl)-7-azaspiro[3.5]nonan-7-yl)-N-((4-((((1r,4r)-4-hydroxy-4-methylcyclohexyl)methyl)amino)-3-nitrophenyl)sulfonyl)-2-((5aS,9aR)-6,7,9,9a-tetrahydro-1H-pyrano[3,4-b]pyrrolo[3′,2′:5,6]pyrido[3,2-e][1,4]oxazin-5(5aH)-yl)benzamide], the IC50 is reported as 6.3 nM. Work on `COc1cc(CN2CCN(C3CC4(CCN(c5ccc(C(=O)NS(=O)(=O)c6ccc(NCC7CCOCC7)c([N+](=O)[O-])c6)c(N6c7cc8cc[nH]c8nc7O[C@H]7COCC[C@@H]76)c5)CC4)C3)[C@@H](c3ccccc3OC(C)C)C2)cnc1N1CCOCC1` [Example 131, 2-[(3R,8S)-2,5-dioxa-9,15,17-triazatetracyclo[8.7.0.0^{3,8}.0^{12,16}]heptadeca-1(10),11,13,16-tetraen-9-yl]-4-{2-[(2S)-2-(2-isopropoxyphenyl)-4-{[5-methoxy-6-(morpholin-4-yl)pyridin-3-yl]methyl}piperazin-1-yl]-7-azaspiro[3.5]nonan-7-yl}-N-{3-nitro-4-[(oxan-4-ylmethyl)amino]benzenesulfonyl}benzamide] yielded an IC50 of 34.6 nM. For `CC(C)Oc1ccccc1[C@H]1CN(C2CCC(N3CCOC[C@H]3C)CC2)CCN1C1CC2(CCN(c3ccc(C(=O)NS(=O)(=O)c4ccc(NCC5CCC(C)(O)CC5)c([N+](=O)[O-])c4)c(N4c5cc6cc[nH]c6nc5O[C@H]5COCC[C@@H]54)c3)CC2)C1` (stereo partly drawn) [Example 160, N-((4-((((1r,4r)-4-hydroxy-4-methylcyclohexyl)methyl)amino)-3-nitrophenyl)sulfonyl)-4-(2-((S)-2-(2-isopropoxyphenyl)-4-((1S,4R)-4-((R)-3-methylmorpholino)cyclohexyl)piperazin-1-yl)-7-azaspiro[3.5]nonan-7-yl)-2-((5aS,9aR)-6,7,9,9a-tetrahydro-1H-pyrano[3,4-b]pyrrolo[3′,2′:5,6]pyrido[3,2-e][1,4]oxazin-5(5aH)-yl)benzamide], the IC50 was 22.8 nM. `CC(C)Oc1ccccc1[C@H]1CN(Cc2ccc(N3CCOC[C@H]3C)cc2)CCN1C1CC2(CCN(c3ccc(C(=O)NS(=O)(=O)c4ccc(NCC5CCC(C)(O)CC5)c([N+](=O)[O-])c4)c(N4c5cc6cc[nH]c6nc5O[C@H]5COCC[C@@H]54)c3)CC2)C1` (stereo partly drawn) [Example 116, 2-[(3R,8S)-2,5-dioxa-9,15,17-triazatetracyclo[8.7.0.0^{3,8}.0^{12,16}]heptadeca-1(10),11,13,16-tetraen-9-yl]-4-{2-[(2S)-2-(2-isopropoxyphenyl)-4-({4-[(3R)-3-methylmorpholin-4-yl]phenyl}methyl)piperazin-1-yl]-7-azaspiro[3.5]nonan-7-yl}-N-[3-nitro-4-({[(1r,4r)-4-hydroxy-4-methylcyclohexyl]methyl}amino)benzenesulfonyl]benzamide] showed an IC50 of 28.7 nM. Compound `COc1cc(CN2CCN([C@@H]3CC4(CCN(c5ccc(C(=O)NS(=O)(=O)c6ccc(NCC7CCC(C)(O)CC7)c([N+](=O)[O-])c6)c(N6c7cc8cc[nH]c8nc7O[C@H]7COCC[C@@H]76)c5)CC4)[C@@H]3C)[C@H](c3ccccc3C)C2)cnc1N1CCOCC1` (stereo partly drawn) [Example 140, 2-[(3R,8S)-2,5-dioxa-9,15,17-triazatetracyclo[8.7.0.0^{3,8}.0^{12,16}]heptadeca-1(10),11,13,16-tetraen-9-yl]-4-[(1S,2R)-2-[(2R)-4-{[5-methoxy-6-(morpholin-4-yl)pyridin-3-yl]methyl}-2-(2-methylphenyl)piperazin-1-yl]-1-methyl-7-azaspiro[3.5]nonan-7-yl]-N-[3-nitro-4-({[(1r,4r)-4-hydroxy-4-methylcyclohexyl]methyl}amino)benzenesulfonyl]benzamide] has an IC50 of 6.4 nM.
